These are literature values, as cited in patent publication US20120245171A1, “BENZPYRAZOLE DERIVATIVES AS INHIBITORS OF PI3 KINASES” (GLAXO GROUP LIMITED, priority 2009, published 2012).

The IC50 is the point on the concentration scale where inhibition reaches its midpoint.

Like-named read-outs stand apart in the source and are kept apart here.

One data set deals with Class I PI3-kinases. The following applies: each of the Class I PI3-kinases.
For the next data set, the target named is CK2 protein kinase (Homo sapiens, UniProt P68400).
Data set [1] deals with neutrophils. The note with it: for superoxide release: neutrophils.
The test system of data set [2] is neutrophils. The following applies: treatment of neutrophils; Thelen et al. 1994.

Sequence of CK2 protein kinase (P68400 whole entry): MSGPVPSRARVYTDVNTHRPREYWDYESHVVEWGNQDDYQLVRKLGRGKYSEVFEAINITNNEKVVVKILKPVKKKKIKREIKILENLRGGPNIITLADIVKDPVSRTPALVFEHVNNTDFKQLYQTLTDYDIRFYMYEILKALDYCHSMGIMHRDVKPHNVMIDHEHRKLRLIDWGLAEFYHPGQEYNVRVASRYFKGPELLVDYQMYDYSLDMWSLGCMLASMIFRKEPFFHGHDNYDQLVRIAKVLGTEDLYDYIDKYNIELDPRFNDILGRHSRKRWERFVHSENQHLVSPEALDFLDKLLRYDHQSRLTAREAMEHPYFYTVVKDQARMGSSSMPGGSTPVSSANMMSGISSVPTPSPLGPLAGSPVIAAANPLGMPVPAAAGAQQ

For the compound `O=c1cc(N2CCOCC2)oc2c(-c3ccccc3)cccc12` [LY294002], the IC50 in the data set on Class I PI3-kinases (Fruman et al. 1998, read-out: IC50 against each of these PI3-kinases) is 15 to 20 µM. Further, the 50% inhibitory concentration (IC50) on CK2 protein kinase was 5 to 10 µM. In the data set with neutrophils [1], the neutrophil migration entry is listed as “block” and the superoxide release result is given as “block”.
Regarding `COC[C@H]1OC(=O)c2coc3c2[C@@]1(C)C1=C(C3=O)[C@@H]2CCC(=O)[C@@]2(C)C[C@H]1OC(C)=O` [wortmannin], the “fMLP-induced respiratory burst response” value with neutrophils [2] is given as “prevents”. Also, in the data set with Class I PI3-kinases (read-out: IC50 against each of the various Class I PI3-kinases), the IC50 was 0.001 to 0.01 µM. In addition, in the data set with neutrophils [1], the neutrophil migration result is reported as “block” and the superoxide release result was “block”.
